Measured values from ChEMBL document CHEMBL1158867, “Activity-guided isolation of constituents of Tephrosia purpurea with the potential to induce the phase II enzyme, quinone reductase” (J Nat Prod, 1997).
pIC50: −log10 of the molar value.

Experiments:
[1] = Chemoprevention index, ratio of IC50 for mouse Hepa-1c1c7 cells to drug level required to double quinone reductase activity in mouse Hepa-1c1c7 cells; assay type: functional
[2] = Cytotoxicity against mouse Hepa-1c1c7 cells assessed as cell survival after 2 days by MTT assay; assay type: functional, cell-based; conditions: Hepa-1c1c7, 48 h

Compound | Ratio [1] | pIC50 [2]
COc1ccc2c(c1)O[C@H]1c3ccc(O)cc3OC[C@@H]21 | >5.4 | < 4.13
COc1cc(-c2coc3cc(O)ccc3c2=O)cc(OC)c1O | >3.7 | < 4.20
COc1c(O)ccc2c1OC[C@H]1c3cc4c(cc3O[C@@H]21)OCO4 | >4.4 | < 4.20
COc1cc2c(c3c1C(=O)C[C@@H](c1ccccc1)O3)[C@H]1[C@@H](O2)OC(C)(C)[C@@H]1OC(C)=O | >9 | < 4.29
O=c1cc(-c2ccccc2)oc2c1ccc1occc12 [LANCEOLATIN B] | >3.3 | < 4.12
Oc1ccc2c(c1)OC[C@H]1c3cc4c(cc3O[C@@H]21)OCO4 [MAACKIAIN] | >8 | < 4.15
COc1c(C(=O)/C=C(\O)c2ccccc2)ccc2occc12 [PONGAMOL] | 3.1 | 4.73
C[S+]([O-])CCCCN=C=S (stereo not drawn) [SULFORAPHANE] | 25 | 4.96
COc1cc2c(c(O)c1C(=O)/C=C/c1ccccc1)[C@H]1[C@@H](O2)OC(C)(C)[C@@H]1OC(C)=O [TEPHROPURPURIN] | 89 | 4.87
